The results in this text go back to US20220081435A1, “ANDROGEN RECEPTOR PROTEIN DEGRADERS” (THE REGENTS OF THE UNIVERSITY OF MICHIGAN, priority 2019, published 2022).

Test [1] has as its system AR protein. In words: AR protein degradation in 22RV1 cells (Western blotting). The test is classed as cell-based. How it is done: (§1) Cell lines and Cell Culture: All the LNCaP, VCaP and 22RV1 cells used were purchased from American Type Culture Collection (ATCC). LNCaP and 22RV1 cells were grown in RPMI 1640 (Invitrogen), VCaP cells were grown in DMEM with Glutamax (Invitrogen). All of the cells were supplemented with 10% fetal bovine serum (Invitrogen) at 37° C. in a humidified 5% CO2 incubator.
(§2) Western Blotting. Treated cells were lysed by RIPA buffer supplemented with protease and phosphatase inhibitors. The cell lysates were separated by 4-12% SDS-PAGE gels and blotted into PVDF membranes. Software ImageJ was used to quantify the percentage of AR degradation. The net protein bands and loading controls are calculated by deducting the background from the inverted band value. The final relative quantification values are the ratio of net band to net loading control.
In general terms: In western blotting, separated proteins are transferred to a membrane and probed.

For test [2], the target named is T1, AR protein (Homo sapiens, UniProt P10275).
T1 construct: host or cells: VCaP
T1 sequence (P10275 1-920): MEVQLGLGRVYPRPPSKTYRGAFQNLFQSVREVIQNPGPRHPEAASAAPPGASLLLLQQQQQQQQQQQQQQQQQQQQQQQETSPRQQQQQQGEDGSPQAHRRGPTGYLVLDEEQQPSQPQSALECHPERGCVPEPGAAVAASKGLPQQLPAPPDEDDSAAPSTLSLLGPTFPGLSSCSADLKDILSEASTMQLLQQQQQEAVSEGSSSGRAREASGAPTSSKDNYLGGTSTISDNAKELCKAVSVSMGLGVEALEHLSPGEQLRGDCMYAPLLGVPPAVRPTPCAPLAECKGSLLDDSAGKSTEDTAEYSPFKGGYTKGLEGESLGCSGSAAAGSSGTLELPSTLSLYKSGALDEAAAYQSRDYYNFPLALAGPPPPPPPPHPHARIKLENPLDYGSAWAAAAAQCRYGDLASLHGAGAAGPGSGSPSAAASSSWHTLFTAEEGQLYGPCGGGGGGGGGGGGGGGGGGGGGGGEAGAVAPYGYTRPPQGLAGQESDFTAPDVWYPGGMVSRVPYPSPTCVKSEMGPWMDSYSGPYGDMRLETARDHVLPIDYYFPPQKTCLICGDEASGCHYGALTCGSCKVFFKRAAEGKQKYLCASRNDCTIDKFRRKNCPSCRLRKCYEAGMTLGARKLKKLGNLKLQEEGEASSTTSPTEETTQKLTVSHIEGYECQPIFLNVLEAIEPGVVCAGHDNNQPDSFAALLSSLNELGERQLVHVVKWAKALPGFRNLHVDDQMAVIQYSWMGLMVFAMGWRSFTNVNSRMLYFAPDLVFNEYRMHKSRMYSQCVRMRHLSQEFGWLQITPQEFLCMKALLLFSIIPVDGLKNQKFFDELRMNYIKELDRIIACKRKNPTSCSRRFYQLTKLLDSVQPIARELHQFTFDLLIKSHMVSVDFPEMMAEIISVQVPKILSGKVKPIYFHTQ
Kind of test: AR protein degradation in VCaP cells (Western blotting). In kind it is cell-based. As to the method: as §1, §2

Structures are written as SMILES. Some results are limits rather than exact numbers.

On to `Cc1ncsc1-c1ccc([C@H](CC(=O)N2CCC(N3CCC(C#Cc4ccc(C(=O)NC5C(C)(C)C(Oc6ccc(C#N)c(Cl)c6)C5(C)C)cc4)CC3)CC2)NC(=O)[C@@H]2C[C@@H](O)CN2C(=O)[C@@H](NC(=O)C2(F)CC2)C(C)(C)C)cc1` (stereo partly drawn) [Compound 34, (2S,4R)—N—((S)-3-(4-((4-(((1r,3r)-3-(3-Chloro-4-cyanophenoxy)-2,2,4,4-tetramethyl-cyclobutyl)carbamoyl)phenyl)ethynyl)-[1,4′-bipiperidin]-1′-yl)-1-(4-(4-methylthiazol-5-yl)phenyl)-3-oxopropyl)-1-((S)-2-(1-fluorocyclopropane-1-carboxamido)-3,3-dimethylbutanoyl)-4-hydroxypyrrolidine-2-carboxamide], for which the AR degradation result was “near complete degradation” in the test with AR protein [1] (22RV1, 1 μM, 24 h treatment) and > 95% at AR protein [2] (10 nM, 24 h treatment). The DC50 was 10.4 nM with AR protein [1] (22RV1, 24 h treatment, read-out: DC50 (drug concentration that results in 50% protein degradation)) and 0.76 nM at AR protein [2] (24 h treatment, read-out: DC50 (drug concentration that results in 50% protein degradation)). On AR protein [2] (100 nM), the “Time to effective reduction of AR protein level” value is ≤ 2 h. The “AR depletion with a 4 h treatment” value on AR protein [2] (100 nM, 4 h) was “near-complete AR depletion”. In addition, the “AR degradation after pretreatment with AR antagonist (6), VHL-d, MLN4924 or MG132” value at AR protein [2] (data not shown) is listed as “effectively blocked”.
